The record followed here is patent US20230303584A1, “4,5,6,7-TETRAHYDROTHIENO[2,3-C]PYRIDINE SUMO INHIBITORS AND USES THEREOF” (SUVALENT THERAPEUTICS INC., priority 2020, published 2023).

Assay [1] deals with SUMO activating enzyme (E1) (Homo sapiens (Human), UniProt Q9UBT2). In words: Inhibitory effect on activating enzyme (E1), 15 min preincubation (Table 2). Format: biochemical. As to conditions: enzyme preincubated with compound for 15 minutes; read-out: E1 biological activity. The method, then:
Compounds are evaluated for their inhibitory effect on activating enzymes (E1) of ubiquitin, SUMO, Nedd8, Urm1, ISG15 or Atg7 using previously reported methods and protocols. One example is in: Allosteric inhibition of ubiquitin-like modifications by a class of inhibitor of SUMO-activating enzyme. Cell Chemical Biology, 26,1-11, 2019. PMID: 28051857. The enzyme was preincubated with the compounds for 15 minutes.

The target in another assay is SAE1 (Homo sapiens (Human), UniProt Q9UBT2). In words: SAE high throughput biochemical (HTRF) assay. The settings on record: 15 min preincubation; 100 µM ATP; read-out: 15 min preincubation HTRF IC50 (uM) Ave. The protocol:
Assay buffer was prepared [50 mM HEPES, pH 7.5, 0.1% BSA and 10 mM MgCl2] as was the Stop Buffer [100 mM HEPES, pH 7.5, 0.05% Tween20, and 410 mM KF]. The 2x Reaction Buffer [80 nM SUMO-GST, 80 nM UBC9-His, 200 µM ATP and diluted in Assay Buffer] and Antibody Reaction Mix [13.34 nM anti-GST XL665, 1.66 nM anti-His EuK and Diluted in Stop Buffer] were also prepared. Compounds were dissolved at 200x in DMSO in a 384-well plate. Serial dilutions were performed in DMSO for each compound, and then each concentration was diluted another 50-fold in Assay Buffer, to 4x the final concentration. 2.5 µL of each concentration was transferred into its own well in a 384-well plate. SAE1 was then diluted to 4x in Assay Buffer, and 2.5 µL of 4x SAE1 was mixed into each compound-containing well. After incubating for 15 minutes at room temperature, 5 µL of 2x Reaction Buffer was mixed into every well. Then after another 45 minutes at room temperature, 10 µL of Antibody Reaction Mix was added and mixed into every well. This plate was then read on an HTRF-compatible plate reader after 2 hours at room temperature, and again after sitting at room temperature overnight. [Final Component Concentrations: SAE1: 12.5 nM; SUMO-GST: 40 nM; UBC9-His: 40 nM; Anti-GST-XL665: 6.67 nM; Anti-His-EuK: 0.83 nM; and ATP: 100 µM ] Alternatively, the compounds are tested at a single concentration of 25 micromolar and the percent of control is measured.
(In TR-FRET formats the signal depends on donor and acceptor labels being close together.)

In assay [2] the test system is SUMO 2/3 conjugates (sumoylation levels) in HCT-116 cells. The assay can be described thus: HCT-116 4 hour cell assay, immunoblot of SUMO 2/3 conjugates. Format: cell-based. As to conditions: 4 h treatment, Western blot, read-out: Cell HCT-116 Western SUMO 2/3 4 h IC50 (uM) Ave. The method, then: This protocol describes the procedures used to assess the effects of compounds of interest on sumoylation levels. Immunoblot of SUMO ⅔ conjugates are performed and IC50 curves are generated upon quantification of sumoylations bands. HCT-1 16 cells are seeded in a 12 well plate (500,000 cells/well). The following day the cells are treated with compounds of interest (resuspended in DMSO) for 4 hours (11 concentrations with a three-fold dilution; starting concentration 25 µM) Following 4 hours of incubation the cells are washed with ice cold PBS 1X and protein extraction is performed with RIPA buffer supplemented with phosphatases and proteases inhibitors, 25 mM of NEM and 50 units/mL of Benzonase . Samples undergo centrifugation at 13,000 RPM, 4° C., for 10 minutes and the supernatant is collected. Protein quantification is performed using BCA. Non-Reducing Laemmli Buffer is added to the samples. Samples are heated at 75° C. for 10 minutes, and are centrifuged for 3 minutes at 9000 RPM Nupage 4-12% Bis Tris gels and 1x MOPS buffer (Fisher Scientific) + 1x NuPAGE Antioxidant (Invitrogen) are used to perform the SDS-PAGE gel electrophoresis (20 to 40 µg of proteins are loaded in the gels). Proteins are then transferred to PVDF membranes and the level of total proteins are measured by staining with Revert Total Protein Stain and the fluorescent bands are acquired using the LI-COR FC (700 nm for 1 min) Membranes are blocked for 5 minutes with Bio-Rad Blocking Buffer and are subsequently incubated over night at 4° C. with Anti-Sumo 2-3 mAb (MBL #M114-3, 1:1000 in Bio-Rad Blocking Buffer, 0.2% Tween 20) Membranes are washed with 1X TBS-T (3 times for 5 minutes) and sumoylation is detected using Li-cor IRDye 800CW Goat anti-Mouse IgG secondary antibody (1:10,000 dilution) upon 1 hour of incubation in blocking buffer with 0.2% Tween 20 and 0.01% SDS. After the incubation, the membranes are washed with 1X TBS-T (3 times for 5 minutes). To visualize the fluorescent bands the membranes are scanned with LI-COR FC (700 nm for 1 min and […] for 2 mins) Sumoylation levels are quantified upon normalization with total protein levels, using the LI-COR Image Studio Lite 5.2 Software.
A general note: Immunoblotting shows a protein as a band on a membrane.

SMILES strings stand for the structures.

Chain of SAE1 (Q9UBE0 whole entry partner): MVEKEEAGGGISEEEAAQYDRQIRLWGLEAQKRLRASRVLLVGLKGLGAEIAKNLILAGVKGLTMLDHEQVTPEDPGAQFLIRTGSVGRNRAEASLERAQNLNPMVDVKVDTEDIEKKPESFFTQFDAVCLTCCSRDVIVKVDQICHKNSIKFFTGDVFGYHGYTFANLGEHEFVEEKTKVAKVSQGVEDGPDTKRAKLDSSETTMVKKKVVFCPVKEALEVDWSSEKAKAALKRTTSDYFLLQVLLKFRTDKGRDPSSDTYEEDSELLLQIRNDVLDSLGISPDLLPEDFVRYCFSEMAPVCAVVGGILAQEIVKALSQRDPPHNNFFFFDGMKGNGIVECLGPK
Chain of SAE1 (Q9UBT2 whole entry): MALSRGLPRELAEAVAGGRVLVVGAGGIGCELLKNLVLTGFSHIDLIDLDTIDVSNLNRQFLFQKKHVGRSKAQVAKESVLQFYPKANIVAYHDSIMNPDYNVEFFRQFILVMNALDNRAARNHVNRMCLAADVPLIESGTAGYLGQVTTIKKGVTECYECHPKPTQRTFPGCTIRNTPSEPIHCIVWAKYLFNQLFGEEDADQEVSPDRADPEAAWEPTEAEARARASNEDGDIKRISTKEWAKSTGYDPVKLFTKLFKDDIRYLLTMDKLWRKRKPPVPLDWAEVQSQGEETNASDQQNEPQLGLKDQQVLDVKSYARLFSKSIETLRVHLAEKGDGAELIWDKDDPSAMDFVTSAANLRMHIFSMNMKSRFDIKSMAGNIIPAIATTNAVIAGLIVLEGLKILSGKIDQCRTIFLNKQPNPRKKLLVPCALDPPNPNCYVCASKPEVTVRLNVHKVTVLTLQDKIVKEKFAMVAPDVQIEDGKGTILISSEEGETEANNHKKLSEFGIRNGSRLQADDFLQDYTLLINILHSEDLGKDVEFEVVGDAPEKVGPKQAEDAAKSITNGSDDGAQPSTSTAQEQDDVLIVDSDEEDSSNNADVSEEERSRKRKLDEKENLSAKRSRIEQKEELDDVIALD
Chain of SUMO activating enzyme (E1) (Q9UBT2 whole entry): as above
Chain of SUMO activating enzyme (E1) (Q9UBE0 whole entry partner): as the sequence (Q9UBE0 whole entry partner) above

On to `C=CC(=O)N1Cc2sc(Cl)cc2[C@H](c2ccccc2-c2cn(C(C)C)nc2C(F)(F)F)C1` [Compound 255], for which the IC50 in assay [1] was less than 10000 nM.

As for `C=CC(=O)N1Cc2sc(Cl)cc2[C@H](c2ccccc2-c2cn(C(C)(C)C(N)=O)nc2C(F)(F)F)C1` [Compound 312], the IC50 is less than 10000 nM in assay [1], 0.23 µM at SAE1 and 0.28 µM in assay [2].

For `C=CC(=O)N1Cc2sc(C(=C)C)cc2[C@H](c2ccccc2-c2cn(CC)nc2C(F)(F)F)C1` [Compound 318], the results for the IC50 (on SAE1; in assay [2]) were 0.29 µM and 0.33 µM, respectively.

For the molecule `CCn1cc(-c2ccccc2[C@@H]2CN(C(=O)/C=C/CF)Cc3sc(Cl)cc32)c(C(F)(F)F)n1` [Compound 323], the IC50 on SAE1 came out at 0.13 µM; in assay [2], 0.39 µM.

In the case of `C=CC(=O)N1Cc2sc(-c3ccco3)cc2[C@H](c2ccccc2-c2cn(CC)nc2C(F)(F)F)C1` [Compound 324], the IC50 came out at 0.14 µM on SAE1 and 0.34 µM in assay [2].

`C=CC(=O)N1Cc2sc(Cl)cc2C(c2ccccc2-c2cn(-c3ccncc3Cl)nc2C(F)(F)F)C1` (stereo not shown) [Compound 340]: on SAE1, the IC50 was 0.93 µM.

With `C=CC(=O)N1Cc2sc(Cl)cc2[C@H](c2ccccc2-c2cnn(CC)c2CC)C1` [Compound 360], the IC50 on SAE1 amounted to 4.33 µM; in assay [2], 13.6 µM.
